Results taken from publication PMC10289903 (Investigational New Drugs, 2023).
Where two headings read alike, the source gives them in different places.

System: patients with locally advanced or metastatic solid tumors
Excerpt: This was a Phase Ib, multicenter, open-label, dose-finding clinical trial (NCT02610075). […] Three types of treatment schedules were investigated: cohorts bid 1, bid 2, qd 1.1, qd 2.1 and qd 3.1 received bid or qd treatment on a 5/9 schedule (5 days on treatment, followed by 9 days off) on a 14-day cycle. Cohorts qd 1.2, qd 2.2, and qd 3.2 received treatment on a 5/2 schedule (5 days on followed by 2 days off for 2 of 3 weeks) in a 21-day cycle. Cohorts qd 2.3 and qd 3.3 received treatment on a weekly 5/2 schedule in a 21-day cycle (Table 1). The highest dose level(s) at which less than one-third of evaluable patients (none of 3 patients or 1 of 6 patients) experienced a dose-limiting toxicity (DLT) was declared the MTD.
The per protocol analysis set was defined as a subset of the full analysis set, excluding subjects having an important protocol deviation, to be used for analyses of efficacy endpoints if appropriate.

SMILES: C=CCn1c(=O)c2cnc(Nc3ccc(N4CCN(C)CC4)cc3)nc2n1-c1cccc(C(C)(C)O)n1 [adavosertib, Adavosertib]
- Dizziness (treatment-emergent AE) (qd 1.1: 200 mg qd 5/9 (n=5)): 1 (20.0) n (%)
- Dyspepsia (treatment-emergent AE) (qd 1.1: 200 mg qd 5/9 (n=5)): 1 (20.0) n (%)
- Dyspepsia (treatment-related AE) (qd 1.1: 200 mg qd 5/9 (n=5)): 0 n (%)
- Dyspnea (treatment-emergent AE) (qd 1.1: 200 mg qd 5/9 (n=5)): 0 n (%)
- Edema peripheral (treatment-emergent AE) (qd 1.1: 200 mg qd 5/9 (n=5)): 0 n (%)
- Fall (treatment-emergent AE) (qd 1.1: 200 mg qd 5/9 (n=5)): 0 n (%)
- Fatigue (treatment-emergent AE) (qd 1.1: 200 mg qd 5/9 (n=5)): 2 (40.0) n (%)
- Fatigue (treatment-related AE) (qd 1.1: 200 mg qd 5/9 (n=5)): 1 (20.0) n (%)
- Headache (treatment-emergent AE) (qd 1.1: 200 mg qd 5/9 (n=5)): 1 (20.0) n (%)
- Hypokalemia (treatment-emergent AE) (qd 1.1: 200 mg qd 5/9 (n=5)): 0 n (%)
- Insomnia (treatment-emergent AE) (qd 1.1: 200 mg qd 5/9 (n=5)): 0 n (%)
- Muscle spasms (treatment-emergent AE) (qd 1.1: 200 mg qd 5/9 (n=5)): 0 n (%)
- Myalgia (treatment-emergent AE) (qd 1.1: 200 mg qd 5/9 (n=5)): 1 (20.0) n (%)
- Myalgia (treatment-related AE) (qd 1.1: 200 mg qd 5/9 (n=5)): 1 (20.0) n (%)
- Nausea (treatment-emergent AE) (qd 1.1: 200 mg qd 5/9 (n=5)): 1 (20.0) n (%)
- Nausea (treatment-related AE) (qd 1.1: 200 mg qd 5/9 (n=5)): 1 (20.0) n (%)
- Neutropenia (treatment-emergent AE) (qd 1.1: 200 mg qd 5/9 (n=5)): 1 (20.0) n (%)
- Neutropenia (treatment-related AE) (qd 1.1: 200 mg qd 5/9 (n=5)): 1 (20.0) n (%)
- Pneumonia (treatment-emergent AE) (qd 1.1: 200 mg qd 5/9 (n=5)): 0 n (%)
- Pyrexia (treatment-emergent AE) (qd 1.1: 200 mg qd 5/9 (n=5)): 1 (20.0) n (%)
- Rash (treatment-emergent AE) (qd 1.1: 200 mg qd 5/9 (n=5)): 1 (20.0) n (%)
- Thrombocytopenia (treatment-emergent AE) (qd 1.1: 200 mg qd 5/9 (n=5)): 0 n (%)
- Thrombocytopenia (treatment-related AE) (qd 1.1: 200 mg qd 5/9 (n=5)): 0 n (%)
- Urinary tract infection (treatment-emergent AE) (qd 1.1: 200 mg qd 5/9 (n=5)): 1 (20.0) n (%)
- Vomiting (treatment-emergent AE) (qd 1.1: 200 mg qd 5/9 (n=5)): 0 n (%)
- Vomiting (treatment-related AE) (qd 1.1: 200 mg qd 5/9 (n=5)): 0 n (%)
- Abdominal pain (treatment-emergent AE) (qd 1.2: 200 mg qd 5/2 (n=6)): 2 (33.3) n (%)
- Abdominal pain (treatment-related AE) (qd 1.2: 200 mg qd 5/2 (n=6)): 1 (16.7) n (%)
- Alanine aminotransferase increased (treatment-emergent AE) (qd 1.2: 200 mg qd 5/2 (n=6)): 1 (16.7) n (%)
- Anemia (treatment-emergent AE) (qd 1.2: 200 mg qd 5/2 (n=6)): 2 (33.3) n (%)
- Anemia (treatment-related AE) (qd 1.2: 200 mg qd 5/2 (n=6)): 2 (33.3) n (%)
- Any AE (treatment-emergent) (qd 1.2: 200 mg qd 5/2 (n=6)): 6 (100) n (%)
- Any grade ≥ 3 AE (qd 1.2: 200 mg qd 5/2 (n=6)): 3 (50.0) n (%)
- Any treatment-related AE (qd 1.2: 200 mg qd 5/2 (n=6)): 6 (100) n (%)
- Any treatment-related grade ≥ 3 AE (qd 1.2: 200 mg qd 5/2 (n=6)): 2 (33.3) n (%)
- Asthenia (treatment-emergent AE) (qd 1.2: 200 mg qd 5/2 (n=6)): 0 n (%)
- Asthenia (treatment-related AE) (qd 1.2: 200 mg qd 5/2 (n=6)): 0 n (%)
- Back pain (treatment-emergent AE) (qd 1.2: 200 mg qd 5/2 (n=6)): 1 (16.7) n (%)
- Constipation (treatment-emergent AE) (qd 1.2: 200 mg qd 5/2 (n=6)): 2 (33.3) n (%)
- Constipation (treatment-related AE) (qd 1.2: 200 mg qd 5/2 (n=6)): 1 (16.7) n (%)
- Cough (treatment-emergent AE) (qd 1.2: 200 mg qd 5/2 (n=6)): 1 (16.7) n (%)
- Decreased appetite (treatment-emergent AE) (qd 1.2: 200 mg qd 5/2 (n=6)): 1 (16.7) n (%)
- Decreased appetite (treatment-related AE) (qd 1.2: 200 mg qd 5/2 (n=6)): 1 (16.7) n (%)
- Dehydration (treatment-emergent AE) (qd 1.2: 200 mg qd 5/2 (n=6)): 2 (33.3) n (%)
- Dehydration (treatment-related AE) (qd 1.2: 200 mg qd 5/2 (n=6)): 1 (16.7) n (%)
- Diarrhea (treatment-emergent AE) (qd 1.2: 200 mg qd 5/2 (n=6)): 3 (50.0) n (%)
- Diarrhea (treatment-related AE) (qd 1.2: 200 mg qd 5/2 (n=6)): 2 (33.3) n (%)
- Dizziness (treatment-emergent AE) (qd 1.2: 200 mg qd 5/2 (n=6)): 2 (33.3) n (%)
- Dyspepsia (treatment-emergent AE) (qd 1.2: 200 mg qd 5/2 (n=6)): 1 (16.7) n (%)
- Dyspepsia (treatment-related AE) (qd 1.2: 200 mg qd 5/2 (n=6)): 1 (16.7) n (%)
- Dyspnea (treatment-emergent AE) (qd 1.2: 200 mg qd 5/2 (n=6)): 1 (16.7) n (%)
- Edema peripheral (treatment-emergent AE) (qd 1.2: 200 mg qd 5/2 (n=6)): 3 (50.0) n (%)
- Fall (treatment-emergent AE) (qd 1.2: 200 mg qd 5/2 (n=6)): 1 (16.7) n (%)
- Fatigue (treatment-emergent AE) (qd 1.2: 200 mg qd 5/2 (n=6)): 1 (16.7) n (%)
- Fatigue (treatment-related AE) (qd 1.2: 200 mg qd 5/2 (n=6)): 1 (16.7) n (%)
- Headache (treatment-emergent AE) (qd 1.2: 200 mg qd 5/2 (n=6)): 2 (33.3) n (%)
- Hypokalemia (treatment-emergent AE) (qd 1.2: 200 mg qd 5/2 (n=6)): 0 n (%)
- Insomnia (treatment-emergent AE) (qd 1.2: 200 mg qd 5/2 (n=6)): 1 (16.7) n (%)
- Muscle spasms (treatment-emergent AE) (qd 1.2: 200 mg qd 5/2 (n=6)): 1 (16.7) n (%)
- Myalgia (treatment-emergent AE) (qd 1.2: 200 mg qd 5/2 (n=6)): 3 (50.0) n (%)
- Myalgia (treatment-related AE) (qd 1.2: 200 mg qd 5/2 (n=6)): 3 (50.0) n (%)
- Nausea (treatment-emergent AE) (qd 1.2: 200 mg qd 5/2 (n=6)): 4 (66.7) n (%)
- Nausea (treatment-related AE) (qd 1.2: 200 mg qd 5/2 (n=6)): 4 (66.7) n (%)
- Neutropenia (treatment-emergent AE) (qd 1.2: 200 mg qd 5/2 (n=6)): 1 (16.7) n (%)
- Neutropenia (treatment-related AE) (qd 1.2: 200 mg qd 5/2 (n=6)): 0 n (%)
- Pneumonia (treatment-emergent AE) (qd 1.2: 200 mg qd 5/2 (n=6)): 0 n (%)
- Pyrexia (treatment-emergent AE) (qd 1.2: 200 mg qd 5/2 (n=6)): 1 (16.7) n (%)
- Rash (treatment-emergent AE) (qd 1.2: 200 mg qd 5/2 (n=6)): 0 n (%)
- Thrombocytopenia (treatment-emergent AE) (qd 1.2: 200 mg qd 5/2 (n=6)): 0 n (%)
- Thrombocytopenia (treatment-related AE) (qd 1.2: 200 mg qd 5/2 (n=6)): 0 n (%)
- Urinary tract infection (treatment-emergent AE) (qd 1.2: 200 mg qd 5/2 (n=6)): 1 (16.7) n (%)
- Vomiting (treatment-emergent AE) (qd 1.2: 200 mg qd 5/2 (n=6)): 3 (50.0) n (%)
- Vomiting (treatment-related AE) (qd 1.2: 200 mg qd 5/2 (n=6)): 3 (50.0) n (%)
- Abdominal pain (treatment-emergent AE) (qd 2.1: 250 mg qd 5/9 (n=4)): 1 (25.0) n (%)
- Abdominal pain (treatment-related AE) (qd 2.1: 250 mg qd 5/9 (n=4)): 1 (25.0) n (%)
- Alanine aminotransferase increased (treatment-emergent AE) (qd 2.1: 250 mg qd 5/9 (n=4)): 0 n (%)
- Anemia (treatment-emergent AE) (qd 2.1: 250 mg qd 5/9 (n=4)): 1 (25.0) n (%)
- Anemia (treatment-related AE) (qd 2.1: 250 mg qd 5/9 (n=4)): 0 n (%)
- Any AE (treatment-emergent) (qd 2.1: 250 mg qd 5/9 (n=4)): 4 (100) n (%)
- Any grade ≥ 3 AE (qd 2.1: 250 mg qd 5/9 (n=4)): 2 (50.0) n (%)
- Any treatment-related AE (qd 2.1: 250 mg qd 5/9 (n=4)): 2 (50.0) n (%)
- Any treatment-related grade ≥ 3 AE (qd 2.1: 250 mg qd 5/9 (n=4)): 0 n (%)
- Asthenia (treatment-emergent AE) (qd 2.1: 250 mg qd 5/9 (n=4)): 0 n (%)
- Asthenia (treatment-related AE) (qd 2.1: 250 mg qd 5/9 (n=4)): 0 n (%)
- Back pain (treatment-emergent AE) (qd 2.1: 250 mg qd 5/9 (n=4)): 0 n (%)
- Constipation (treatment-emergent AE) (qd 2.1: 250 mg qd 5/9 (n=4)): 0 n (%)
- Constipation (treatment-related AE) (qd 2.1: 250 mg qd 5/9 (n=4)): 0 n (%)
- Cough (treatment-emergent AE) (qd 2.1: 250 mg qd 5/9 (n=4)): 2 (50.0) n (%)
- Decreased appetite (treatment-emergent AE) (qd 2.1: 250 mg qd 5/9 (n=4)): 0 n (%)
- Decreased appetite (treatment-related AE) (qd 2.1: 250 mg qd 5/9 (n=4)): 0 n (%)
- Dehydration (treatment-emergent AE) (qd 2.1: 250 mg qd 5/9 (n=4)): 0 n (%)
- Dehydration (treatment-related AE) (qd 2.1: 250 mg qd 5/9 (n=4)): 0 n (%)
- Diarrhea (treatment-emergent AE) (qd 2.1: 250 mg qd 5/9 (n=4)): 1 (25.0) n (%)
- Diarrhea (treatment-related AE) (qd 2.1: 250 mg qd 5/9 (n=4)): 1 (25.0) n (%)
- Dizziness (treatment-emergent AE) (qd 2.1: 250 mg qd 5/9 (n=4)): 0 n (%)
- Dyspepsia (treatment-emergent AE) (qd 2.1: 250 mg qd 5/9 (n=4)): 0 n (%)
- Dyspepsia (treatment-related AE) (qd 2.1: 250 mg qd 5/9 (n=4)): 0 n (%)
- Dyspnea (treatment-emergent AE) (qd 2.1: 250 mg qd 5/9 (n=4)): 0 n (%)
- Edema peripheral (treatment-emergent AE) (qd 2.1: 250 mg qd 5/9 (n=4)): 1 (25.0) n (%)
- Fall (treatment-emergent AE) (qd 2.1: 250 mg qd 5/9 (n=4)): 0 n (%)
- Fatigue (treatment-emergent AE) (qd 2.1: 250 mg qd 5/9 (n=4)): 0 n (%)
- Fatigue (treatment-related AE) (qd 2.1: 250 mg qd 5/9 (n=4)): 0 n (%)
- Headache (treatment-emergent AE) (qd 2.1: 250 mg qd 5/9 (n=4)): 0 n (%)
- Hypokalemia (treatment-emergent AE) (qd 2.1: 250 mg qd 5/9 (n=4)): 0 n (%)
- Insomnia (treatment-emergent AE) (qd 2.1: 250 mg qd 5/9 (n=4)): 0 n (%)
- Muscle spasms (treatment-emergent AE) (qd 2.1: 250 mg qd 5/9 (n=4)): 0 n (%)
- Myalgia (treatment-emergent AE) (qd 2.1: 250 mg qd 5/9 (n=4)): 0 n (%)
- Myalgia (treatment-related AE) (qd 2.1: 250 mg qd 5/9 (n=4)): 0 n (%)
- Nausea (treatment-emergent AE) (qd 2.1: 250 mg qd 5/9 (n=4)): 0 n (%)
- Nausea (treatment-related AE) (qd 2.1: 250 mg qd 5/9 (n=4)): 0 n (%)
- Neutropenia (treatment-emergent AE) (qd 2.1: 250 mg qd 5/9 (n=4)): 0 n (%)
- Neutropenia (treatment-related AE) (qd 2.1: 250 mg qd 5/9 (n=4)): 0 n (%)
- Pneumonia (treatment-emergent AE) (qd 2.1: 250 mg qd 5/9 (n=4)): 0 n (%)
- Pyrexia (treatment-emergent AE) (qd 2.1: 250 mg qd 5/9 (n=4)): 1 (25.0) n (%)
- Rash (treatment-emergent AE) (qd 2.1: 250 mg qd 5/9 (n=4)): 0 n (%)
- Thrombocytopenia (treatment-emergent AE) (qd 2.1: 250 mg qd 5/9 (n=4)): 0 n (%)
